Where “and” joins values, the source holds several entries; their conditions need not be identical. Identical values can stand only once.
Each compound was assayed against HIS-Keap1 full length / Biotin-Nrf2 (16-mer) (Homo sapiens, UniProt Q14145) (assay: biochemical).
HIS-Keap1 full length / Biotin-Nrf2 (16-mer), sequence (Q14145 whole entry): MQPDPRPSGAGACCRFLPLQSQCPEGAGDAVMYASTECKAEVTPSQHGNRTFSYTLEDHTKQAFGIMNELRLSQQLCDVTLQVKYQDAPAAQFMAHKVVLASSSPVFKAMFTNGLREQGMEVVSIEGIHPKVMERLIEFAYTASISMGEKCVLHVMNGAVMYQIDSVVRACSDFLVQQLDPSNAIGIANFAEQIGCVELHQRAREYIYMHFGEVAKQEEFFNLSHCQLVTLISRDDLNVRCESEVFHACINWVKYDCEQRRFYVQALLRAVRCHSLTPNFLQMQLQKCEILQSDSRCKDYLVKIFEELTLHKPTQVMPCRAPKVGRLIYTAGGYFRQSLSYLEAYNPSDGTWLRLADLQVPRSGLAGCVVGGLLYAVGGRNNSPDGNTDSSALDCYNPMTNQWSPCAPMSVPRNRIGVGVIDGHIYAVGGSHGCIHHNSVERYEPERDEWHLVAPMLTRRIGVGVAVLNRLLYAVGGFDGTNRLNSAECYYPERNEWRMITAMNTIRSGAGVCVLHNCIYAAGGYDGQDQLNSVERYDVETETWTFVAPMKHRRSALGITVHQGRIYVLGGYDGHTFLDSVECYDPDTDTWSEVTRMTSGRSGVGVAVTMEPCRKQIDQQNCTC

Row | SMILES | IC50
1 | Cc1c2ccc3c1nnn3CCCCCCc1ccc3c(c1)cc(n3C)C(=O)N1CCc3ccc(cc3C1)[C@@H]2[C@@H](C)C(=O)O [Compound 28] | 0.4 nM and 0.5 nM
2 | Cc1c2ccc3c1nnn3CCCCCCc1ccc3c(c1)cc(n3C)C(=O)N1CCc3ccc(cc3C1)[C@H]2[C@@H](C)C(=O)O [Compound 29] | 192 nM and 103 nM
3 | Cc1c2ccc3c1nnn3CCCCCCc1ccc3c(c1)cc(n3C)C(=O)N1CCc3ccc(cc3C1)[C@H]2[C@H](C)C(=O)O [Compound 30] | 103 nM and 159 nM
4 | Cc1c2ccc3c1nnn3CCCCCCc1ccc3c(c1)cc(n3CCC(F)(F)F)C(=O)N1CCc3ccc(cc3C1)[C@@H]2CC(=O)O [Compound 31] | 2.1 nM and 1.2 nM
5 | Cc1c2ccc3c1nnn3CCCCCCc1ccc(c3ccn(C)c13)C(=O)N1CCc3ccc(cc3C1)[C@@H]2CC(=O)O [Compound 32] | 0.5 nM and 0.6 nM
6 | Cc1c2ccc3c1nnn3CCCCCc1ccc(c3ccn(C)c13)C(=O)N1CCc3ccc(cc3C1)[C@@H]2CC(=O)O [Compound 33] | 0.4 nM and 0.3 nM
7 | Cc1cc2ccc1C(=O)N1CCc3ccc(cc3C1)C(CC(=O)O)c1ccc3c(nnn3CCCCC2)c1F (stereo not shown) [Compound 147] | 0.4 nM and 0.3 nM
8 | Cc1nc2ncc1C(CC(=O)O)c1ccc3c(c1)CN(CC3)C(=O)c1c(F)cc(cc1F)OCCCCO2 (stereo not shown) [Compound 197] | 164 nM and 148 nM
9 | Cc1c2ccc3c1nnn3CCCCCCOc1cnc(nc1)C(=O)N1CCc3ccc(cc3C1)C2CC(=O)O (stereo not shown) [Compound 198] | 0.5 nM and 1.2 nM and 1 nM
10 | CC(C)(C(=O)O)[C@H]1c2ccc3c(c2)CN(CC3)C(=O)c2c(F)cc(cc2F)OCCCCCCn2nnc3cc1ccc32 [Compound 235] | 0.5 nM and 0.6 nM (2×)
11 | Cc1cc2ccc1C(=O)N1CCc3ccc(cc3C1)[C@@H](C(C)(C)C(=O)O)c1ccc3c(c1)nnn3CCCCCCO2 [Compound 237] | 22.9 nM and 36.1 nM and 70.2 nM and 28.2 nM and 29.9 nM
12 | O=C(O)CC1c2ccc3c(c2)CN(CC3)C(=O)c2ccc(cc2)CCCCCn2nnc3c(Cl)c1ccc32 (stereo not shown) [Compound 249] | 1.1 nM and 1.3 nM
13 | CC(C)(C(=O)O)C1c2ccc3c(c2)CN(CC3)C(=O)c2ccc(cc2F)CCCCCn2nnc3cc1ccc32 (stereo not shown) [Compound 271] | 1.9 nM (2×) and 1.7 nM
14 | CC(C)(C(=O)O)C1c2ccc3c(c2)CN(CC3)C(=O)c2ccc(cc2F)CCCCCCn2nnc3cc1ccc32 (stereo not shown) [Compound 281] | 0.4 nM (2×) and 0.5 nM (2×) and 1.4 nM and 0.6 nM
15 | CC(C)(C(=O)O)C1c2ccc3c(c2)CN(CC3)C(=O)c2c(F)cc(cc2F)CCCCCn2nnc3cc1ccc32 (stereo not shown) [Compound 282] | 0.4 nM (2×) and 0.3 nM (3×) and 1.1 nM
16 | O=C(O)CC1c2ccc(nc2)OCCCCCOc2cccc(c2)C(=O)N2CCc3ccc1cc3C2 (stereo not shown) [Compound 344] | 4410 nM and 4850 nM
17 | O=C(O)CC1c2ccc(nc2)OCC/C=C\COc2cccc(c2)C(=O)N2CCc3ccc1cc3C2 (stereo not shown) [Compound 345] | 2900 nM and 3360 nM
18 | Cc1c2ccc3c1nnn3C/C=C/CCc1ccc3c(c1)cc(n3C)C(=O)N1CCc3ccc(cc3C1)[C@H]2[C@H](C)C(=O)O [Compound 360] | 0.9 nM
19 | Cc1c2ccc3c1nnn3CCOCCOc1ccc(cc1)C(=O)N1CCc3ccc(cc3C1)C2CC(=O)O (stereo not shown) [Compound 398] | 5.2 nM and 17.3 nM
20 | O=C(O)CC1c2ccc3c(c2)CN(CC3)S(=O)(=O)c2ccc(cc2)OCCCCCCn2nnc3cc1ccc32 (stereo not shown) [Compound 404] | 662 nM and 271 nM
21 | O=C(O)C[C@@H]1c2ccc3c(c2)CN(CC3)Cc2ccc(cc2)OCCCCCCn2nnc3cc1ccc32 [Compound 405] | 2150 nM and 2050 nM
22 | Cc1c2cccc1C(=O)N1CCc3ccc(cc3C1)C(CC(=O)O)c1ccc3c(nnn3CCCCCO2)c1C (stereo not shown) [Compound 408] | 1.6 nM and 1.5 nM and 13.2 nM and 5 nM
23 | O=C(O)CC1c2ccc3c(c2)CN(CC3)C(=O)c2cccc(c2)OCCOCCn2nnc3cc1ccc32 (stereo not shown) [Compound 410] | 1050 nM and 1900 nM
24 | Cc1ccc2cc1C(=O)N1CCc3ccc(cc3C1)[C@H]([C@@H](C)C(=O)O)c1ccc3c(nnn3CCCCCO2)c1C [Compound 411] | 5.2 nM and 10.1 nM
25 | O=C(O)CC1c2ccc3c(c2)CN(CC3)C(=O)c2ccc(cc2)OCCOCCn2nnc3cc1ccc32 (stereo not shown) [Compound 412] | 28.7 nM and 47.9 nM

Row | SMILES | IC50
26 | Cc1c2ccc3c1nnn3CCOCCOc1cccc(c1)C(=O)N1CCc3ccc(cc3C1)C2CC(=O)O (stereo not shown) [Compound 414] | 106 nM and 313 nM
27 | O=C(O)CC1c2ccc3c(c2)CN(CC3)C(=O)c2cccc(c2)OCCCCc2nnc3cc1ccn23 (stereo not shown) [Compound 415] | 13200 nM and 8750 nM
28 | O=C(O)CC1c2ccc3c(c2)CN(CC3)C(=O)c2cccc(c2)OCCCCCc2nnc3cc1ccn23 (stereo not shown) [Compound 416] | 2420 nM and 348 nM
29 | Cc1c2cccc1C(=O)N1CCc3ccc(cc3C1)C(CC(=O)O)c1ccc3c(c1)nnn3CCCCO2 (stereo not shown) [Compound 417] | 42.7 nM and 35.2 nM
30 | Cc1ccc2cc1OC/C=C/CCn1nnc3cc(ccc31)C(CC(=O)O)c1ccc3c(c1)CN(CC3)C2=O (stereo not shown) [Compound 418] | 390 nM and 381 nM
31 | Cc1c2cccc1C(=O)N1CCc3ccc(cc3C1)C(CC(=O)O)c1ccc3c(c1)nnn3CCCCCO2 (stereo not shown) [Compound 420] | 8.5 nM and 8.3 nM
32 | Cc1c2ccc3c1nnn3CCCCCOc1cccc(c1)C(=O)N1CCc3ccc(cc3C1)C2CC(=O)O (stereo not shown) [Compound 421] | 10.1 nM and 8.4 nM
33 | Cc1ccc2cc1C(=O)N1CCc3ccc(cc3C1)C(CC(=O)O)c1ccc3c(c1)nnn3CCCCCO2 (stereo not shown) [Compound 422] | 11.3 nM and 12.2 nM
34 | O=C(O)CC1c2ccc3c(c2)CN(CC3)C(=O)c2ccc(cc2)OC/C=C/CCn2nnc3cc1ccc32 (stereo not shown) [Compound 424] | 4.8 nM and 4.7 nM and 2.2 nM and 0.5 nM
35 | Cc1c2ccc3nn(nc13)CC/C=C/COc1cccc(c1)C(=O)N1CCc3ccc(cc3C1)C2CC(=O)O (stereo not shown) [Compound 425] | 4320 nM and 5390 nM
36 | Cc1ccc2cc1C(=O)N1CCc3ccc(cc3C1)C(CC(=O)O)c1ccc3c(c1)nnn3CC/C=C/CO2 (stereo not shown) [Compound 426] | 9.2 nM and 11.6 nM
37 | Cc1c2cccc1C(=O)N1CCc3ccc(cc3C1)C(CC(=O)O)c1ccc3c(c1)nnn3CC/C=C/CO2 (stereo not shown) [Compound 427] | 9.2 nM and 9.9 nM
38 | Cc1ccc2cc1OCCCCn1nnc3cc(ccc31)C(CC(=O)O)c1ccc3c(c1)CN(CC3)C2=O (stereo not shown) [Compound 428] | 1090 nM and 962 nM
39 | Cc1c2cccc1C(=O)N1CCc3ccc(cc3C1)C(CC(=O)O)c1ccc3c(c1)nnn3C/C=C/CO2 (stereo not shown) [Compound 429] | 112 nM and 82.3 nM
40 | Cc1ccc2cc1OCCCCCn1nnc3cc(ccc31)C(CC(=O)O)c1ccc3c(c1)CN(CC3)C2=O (stereo not shown) [Compound 430] | 67.5 nM and 56.1 nM
41 | Cc1ccc2cc1C(=O)N1CCc3ccc(cc3C1)C(CC(=O)O)c1ccc3c(c1)nnn3CCCCO2 (stereo not shown) [Compound 431] | 102 nM and 96.9 nM
42 | Cc1ccc2cc1C(=O)N1CCc3ccc(cc3C1)C(CC(=O)O)c1ccc3c(c1)nnn3C/C=C/CO2 (stereo not shown) [Compound 432] | 93.1 nM and 93.3 nM
43 | O=C(O)C[C@@H]1c2ccc3c(c2)CN(CC3)C(=O)c2cccc(c2)OCCCCCn2nnc3cc1ccc32 [Compound 433] | 287 nM and 204 nM
44 | O=C(O)C[C@H]1c2ccc3c(c2)CN(CC3)C(=O)c2cccc(c2)OCCCCCn2nnc3cc1ccc32 [Compound 434] | 17.8 nM and 55.4 nM
45 | O=C(O)CC1c2ccc3c(c2)CN(CC3)C(=O)c2cccc(c2)OCCCCn2nnc3ccc1cc32 (stereo not shown) [Compound 435] | > 30000 nM
46 | O=C(O)CC1c2ccc3c(c2)CN(CC3)C(=O)c2cccc(c2)OC/C=C/CCn2nnc3ccc1cc32 (stereo not shown) [Compound 436] | 2670 nM and 3410 nM
47 | O=C(O)CC1c2ccc3c(c2)CN(CC3)C(=O)c2cccc(c2)OC/C=C/CCn2nc3ccc1cc3n2 (stereo not shown) [Compound 437] | 219 nM and 234 nM
48 | O=C(O)CC1c2ccc3c(c2)CN(CC3)C(=O)c2cccc(c2)OC/C=C/CCn2nnc3cc1ccc32 (stereo not shown) [Compound 439] | 52.7 nM and 121 nM and 119 nM and 122 nM and 106 nM
49 | O=C(O)CC1c2ccc3c(c2)CN(CC3)C(=O)c2cccc(c2)OCCCCCn2nnc3cc1ccc32 (stereo not shown) [Compound 440] | 64.9 nM and 70.3 nM and 114 nM and 113 nM

From patent US12692274B2, “Tetrahydroisoquinoline derivatives for the treatment of red blood disorders and inflammatory diseases” (Sanofi, priority 2020, dated 2026)
